# In patent publication US9126959B2, “PPAR-sparing thiazolidinedione salts for the treatment of metabolic diseases” (Metabolic Solutions Development Company, LLC, priority 2009, dated 2015):
# Counter-ions that a name gives are not always drawn.
# Assays:
# [1] = Moisture sorption analysis of metal salts of Compound B; type: physicochemical; conditions: 25° C.
# Method: Metal salts of compounds of Formula I were characterized using XRPD, DSC, thermogravimetry, and moisture sorption analyses. Note that XRPD patterns described below, and provided in FIGS. 1 and 5 were obtained using a Bruker Model D8 X-Ray Diffractometer. Thermogravimetric analyses, DSC analyses, and moisture sorption analyses were performed using a TA Instruments Universal V4.4A instrument.
# FIG. 1 provides the XRPD pattern of a sample of a sodium salt of Compound B Referring to FIGS. 2-4, thermogravimetric, DSC, and moisture sorption analyses were performed on a sodium salt of Compound B. Thermogravimetric analysis was conducted using 7.5450 mg of the sodium salt and an instrument setting of 10° C./min. The DSC analysis was performed using a 2.00 mg sample of the sodium salt and an instrument setting of 10° C./min. The moisture sorption analysis was performed on 14.07 mg of sodium salt over a relative humidity range of 5% to 95% at 25° C. with 180 minute max. equilibration time and data sampling every 2 minutes.
# FIG. 5 provides the XRPD pattern of a sample of a potassium salt of Compound B Referring to FIGS. 6-8, thermogravimetric, DSC, and moisture sorption analyses were performed on a potassium salt of Compound B. Thermogravimetric analysis was conducted using 15.9290 mg of the potassium salt and an instrument setting of 10° C./min. […]
# [2] = AUC of compound related materials after oral dosing of Compound B free acid or its Na or K salt; type: in vivo; conditions: cynomolgus monkeys, 250 mg free acid equivalents, formulated tablets; compared with free acid
# Method: Referring to FIG. 10, the area under the curve (AUC) of compound related materials was compared following dosing of 250 mg of Compound B as powder in capsules of free acid (PIC), formulated tablets of micronized free acid, or formulated tablets of the Na or K salt of Compound B given at the same free acid equivalents. (N=4 cynomolgus monkeys). The formulated, compressed tablet also contained in each case approximately 40.5% lactose, 16.8% microcrystalline cellulose, 1.9% Croscarmellose sodium, 0.5% colloidal silicon dioxide, and 0.9% magnesium stearate.
# [3] = Bioavailability of sodium salt of Compound A, oral capsule versus iv injection, crossover design; type: in vivo; conditions: male cynomolgus monkeys, oral gavage, 90 mg free base equivalents in gelatin capsules; compared with free base
# Method: The monkeys fasted overnight and were dosed by oral gavage washed down with 10 ml tap water. Blood samples were taken at 0.25, 0.5, 1, 2, 3, 4, 6, 9, 12, 24, and 48 hours after a single dosage was administered and assayed for drug related materials with a LCMS assay using an internal standard. 90 mg of drug was put in 00 gelatin capsules containing 90 mg of free base equivalents. This was compared to an iv injection of 2 ml/kg and 45 mg of free base solution in 50% hydroxypropyl b-cyclodextran. The absolute availability versus an iv injection was determined for both parent compound and major metabolite.
# diabetic KKAy mouse = assay: Blood glucose lowering in the diabetic KKAy mouse; type: in vivo; conditions: diabetic KKAy mice, gavage once daily, measured after 4 daily doses
# Method: In these experiments, free base or sodium salt was given to diabetic KKAy mice (N=6) and blood glucose was measured after 4 days of daily treatment at the doses indicated. KKAy mice, 8-12 weeks of age, were given the doses of the compounds according to the dosages on the X axis of FIG. 11. The compounds were given by gavage once daily at 10 mg/kg. On the fifth day (after 4 daily doses at the levels show) a blood sample was taken to measure plasma glucose.
Structure (SMILES),water uptake ([1]; relative humidity increased from ~5% to ~95% RH) [wt %],bioavailability (AUC of compound related materials) [2],"absolute availability versus an iv injection, major metabolite [3]","absolute availability versus an iv injection, parent compound [3]",lowering blood glucose (plasma glucose) (diabetic KKAy mouse),moisture uptake ([1]; between ~6% and ~95% RH) [wt %]
"COc1cccc(C(=O)COc2ccc(CC3SC(=O)[N-]C3=O)cc2)c1.[K+] (stereo not shown) [potassium salt of Compound B, Potassium 5-{4-[2-(3-methoxyphenyl)-2-oxoethoxy]benzyl}-2,4-dioxo-1,3-thiazolidin-3-ide]",~21.1,significantly higher bioavailability,–,–,–,–
"CCc1ccc(C(=O)COc2ccc(CC3SC(=O)NC3=O)cc2)nc1 (stereo not shown) [sodium salt of Compound A, 5-(4-(2-(5-ethylpyridin-2-yl)-2-oxoethoxy)benzyl)-1,3-thiazolidine-2,4-dione]",–,–,significantly higher bioavailability,significantly higher bioavailability,excellent dose response for lowering blood glucose,–
"COc1cccc(C(=O)COc2ccc(CC3SC(=O)[N-]C3=O)cc2)c1.[Na+] (stereo not shown) [sodium salt of Compound B, Sodium 5-{4-[2-(3-methoxyphenyl)-2-oxoethoxy]benzyl}-2,4-dioxo-1,3-thiazolidin-3-ide]",–,significantly higher bioavailability,–,–,–,~10.0
